Results from publication PMC12603070, “A high-throughput screening approach to discover potential colorectal cancer chemotherapeutics: repurposing drugs to identify novel disruptors of 14-3-3 proteins” (Cell Death & Disease, 2025).
Where a name gives a salt, the structure may show the parent alone. Read-outs that look alike come from different tables or passages of the source.

Key:
[1] = molecular target: T1, 14-3-3ζ:BAD-112-136F interactions (Homo sapiens, UniProt P63104); experiment: BRET sensor screen for disruption of 14-3-3ζ-Rluc8:BAD-112-136F-mCitrine in living NIH-3T3 cells; type: cell-based, murine; set-up: inhibition: dose or concentration left out as unconfirmed; BRET reduction on NIH-3T3: unit not given here; conditions: for inhibition / inhibition at 20 µM: NIH3T3, 3 h, read-out: BRET reduction on NIH-3T3
T1 construct: expressed in transfected cells; host or cells: NIH-3T3 fibroblasts, bi-directional pBI-CMV1 plasmid
T1 sequence (P63104 1-245): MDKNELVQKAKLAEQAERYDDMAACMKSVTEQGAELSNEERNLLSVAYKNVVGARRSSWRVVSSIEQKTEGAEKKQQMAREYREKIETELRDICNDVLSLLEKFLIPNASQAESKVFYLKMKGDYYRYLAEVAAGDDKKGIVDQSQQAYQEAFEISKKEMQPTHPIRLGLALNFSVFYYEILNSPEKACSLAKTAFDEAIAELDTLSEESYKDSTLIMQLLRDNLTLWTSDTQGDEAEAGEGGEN
Method: The Z’-score, which evaluates the robustness of an HTS assay readout, was calculated according to standard protocols. For the HTS, 384-well plates were coated with 100 μg/mL poly-L-ornithine (Sigma, Missouri, United States; #P3655) overnight at 37 °C, followed by rinsing with sterilized water. NIH-3T3 cells were transfected with the BRET sensor two days prior to experimentation, followed by replating onto the pre-coated 384-well plates at a density of 20,000 cells/well. After 24 h of incubation at 37 °C, growth media was replaced by Krebs buffer (pH 7.4).

[2] = test system: NIH-3T3 cells; experiment: Hoechst/propidium iodide cell death assay in NIH-3T3; type: cell-based; conditions: for cytotoxicity at 20 µM: Mus musculus, NIH3T3, 24 h, read-out: Percentage of cell death % 24h NIH3t3
Source text: (§1) A high-content imaging system (PerkinElmer; Operetta CLS), was used to quantify cell death and apoptosis by calculating the number of propidium iodide-positive cells relative to Hoechst-positive cells, and the number of Annexin V-positive cells relative to Hoechst-positive cells, respectively.

[3] = test system: HT-29 cells; experiment: Hoechst/propidium iodide cell death assay in HT-29; type: cell-based, human; conditions: for cytotoxicity at 20 µM: Homo sapiens
Source text: as §1

[4] = NIH-3T3 cells, hits from the primary screen
[5] = NIH-3T3 expressing BRET sensor, 20 µM, 3 h
[6] = HT-29, 24 h, 20 µM, 24 h, read-out: Percentage of cell death % 24h HT-29
[7] = HT-29, 48 h, HT-29, 48h, 20 μM, read-out: Percentage of cell death % 48h, HT-29

Compound | inhibition [1, 4] [%] | inhibition at 20 µM [1, 5] [%] | BRET reduction on NIH-3T3 [1, 5] | cytotoxicity at 20 µM ([2]; 20 µM, 24 h) [%] | Percentage of cell death % 48h, NIH3T3 [2] [%] | cytotoxicity at 20 µM [3, 6] [%] | cytotoxicity at 20 µM [3, 7] [%] | inhibition at 20 µM [1] [%] | BRET reduction on NIH-3T3 [1, 4] | cytotoxicity at 20 µM [2] [%] | cytotoxicity at 20 µM ([3]; HT-29, 24 h, read-out: Percentage of cell death % 24h HT-29) [%] | cytotoxicity at 20 µM ([3]; HT-29, 48 h, read-out: Percentage of cell death % 48h, HT-29) [%] | Percentage of cell death % 24h NIH3t3 ([2]; 20 µM, 24 h) [%] | Percentage of cell death % 24h HT-29 ([3]; 20 µM, 24 h) [%] | Percentage of cell death % 48h, HT-29 ([3]; HT-29, 48h, 20 μM) [%] | %Cell death HT-29 ([3]; HT-29, time not given) [%]
Clc1ccc(C(c2ccccc2Cl)C(Cl)Cl)cc1 (stereo not shown) [Mitotane (Lsodren), Mitotane] | 25.6 | 25.6 | – | 25.3 | 5.575 | 0.553 | 1.62 | – | – | – | – | – | – | – | – | –
C[C@@H](O[C@H]1OCCN(Cc2n[nH]c(=O)[nH]2)[C@H]1c1ccc(F)cc1)c1cc(C(F)(F)F)cc(C(F)(F)F)c1 [Aprepitant] | 26.6 | 26.6 | – | 1.15 | 2.577 | 1.47 | 3.76 | – | – | – | – | – | – | – | – | –
Clc1ccccc1C(c1ccccc1)(c1ccccc1)n1ccnc1 [Clotrimazole] | 30.1 | 30.1 | – | 0.937 | 1.657 | 0.234 | 0.787 | – | – | – | – | – | – | – | – | –
O=C1Cc2cc(CCN3CCN(c4nsc5ccccc45)CC3)c(Cl)cc2N1 [Ziprasidone hydrochloride monohydrate] | 25.5 | 25.5 | – | 1.15 | 0.2764 | 1.29 | 1.87 | – | – | – | – | – | – | – | – | –
c1ccc(-c2ccc(C(c3ccccc3)n3ccnc3)cc2)cc1 (stereo not shown) [Bifonazole] | 32.1 | 32.1 | – | 0.428 | 0.5325 | 1.45 | 2.62 | – | – | – | – | – | – | – | – | –
Clc1ccc(C(Cn2ccnc2)OCc2csc3c(Cl)cccc23)c(Cl)c1 (stereo not shown) [Sertaconazole nitrate] | 46.8 | 46.8 | – | 4.15 | 10.0161 | 2.46 | 4.64 | – | – | – | – | – | – | – | – | –
O=C1c2c(O)ccc(O)c2C(=O)c2c(NCCNCCO)ccc(NCCNCCO)c21 [Mitoxantrone HCl] | 25.5 | 25.5 | – | 0.018 | 0 | 0 | 0.0037 | – | – | – | – | – | – | – | – | –
COc1cc(C)c(/C=C/C(C)=C/C=C/C(C)=C/C(=O)O)c(C)c1C [Acitretin] | – | – | – | – | 1.816 | – | – | 31.9 | 31.8517 | 0.791 | 0.862 | 1.82 | – | – | – | –
CC/C(=C(\c1ccccc1)c1ccc(OCCN(C)C)cc1)c1ccccc1 [Tamoxifen] | – | – | 54.2923 | – | 78.8324 | – | – | – | 54.2923 | – | – | – | 81.9489 | 3.365 | 61.8661 | 63.3
COc1cc2c(Oc3ccc4[nH]c(C)cc4c3F)ncnc2cc1OCCCN1CCCC1 [Cediranib (AZD217), Cediranib] | 39.9 | 39.9 | – | 76.9 | 55.3041 | 11.9 | 83.5 | – | – | – | – | – | – | – | – | –
CC[C@H](c1ccc(O)cc1)[C@@H](CC)c1ccc(O)cc1 [Hexestrol] | 36.7 | 36.7 | – | 5.47 | 3.549 | 1.37 | 3.31 | – | – | – | – | – | – | – | – | –

The next lines start with results.

inhibition [1, 4] [%] | inhibition at 20 µM [1, 5] [%] | BRET reduction on NIH-3T3 [1, 5] | Compound | cytotoxicity at 20 µM ([2]; 20 µM, 24 h) [%] | Percentage of cell death % 48h, NIH3T3 [2] [%] | cytotoxicity at 20 µM [3, 6] [%] | cytotoxicity at 20 µM [3, 7] [%] | inhibition at 20 µM [1] [%] | BRET reduction on NIH-3T3 [1, 4] | cytotoxicity at 20 µM [2] [%] | cytotoxicity at 20 µM ([3]; HT-29, 24 h, read-out: Percentage of cell death % 24h HT-29) [%] | cytotoxicity at 20 µM ([3]; HT-29, 48 h, read-out: Percentage of cell death % 48h, HT-29) [%] | Percentage of cell death % 24h NIH3t3 ([2]; 20 µM, 24 h) [%] | Percentage of cell death % 24h HT-29 ([3]; 20 µM, 24 h) [%] | Percentage of cell death % 48h, HT-29 ([3]; HT-29, 48h, 20 μM) [%] | %Cell death HT-29 ([3]; HT-29, time not given) [%]
30.4 | 30.4 | – | COc1cc(C(=O)NS(=O)(=O)c2ccccc2C)ccc1Cc1cn(C)c2ccc(NC(=O)OC3CCCC3)cc12 [Zafirlukast] | 0.402 | 0.2485 | 0.343 | 0.917 | – | – | – | – | – | – | – | – | –
31.3 | 31.3 | – | C[C@H](CCC(=O)O)[C@H]1CC[C@H]2[C@@H]3[C@H](O)C[C@@H]4C[C@H](O)CC[C@]4(C)[C@H]3CC[C@]12C [Chenodeoxycholic Acid] | 0.372 | 0.2284 | 1.21 | 2.27 | – | – | – | – | – | – | – | – | –
45.5 | 45.5 | – | CC(C)=CCC/C(C)=C/CC/C(C)=C/CSc1ccccc1C(=O)O [Salirasib] | 3.71 | 1.2519 | 0.693 | 1.28 | – | – | – | – | – | – | – | – | –
26 | 26 | – | C=CC[C@@H]1/C=C(\C)C[C@H](C)C[C@H](OC)[C@H]2O[C@@](O)(C(=O)C(=O)N3CCCC[C@H]3C(=O)O[C@H](/C(C)=C/[C@@H]3CC[C@@H](O)[C@H](OC)C3)[C@H](C)[C@@H](O)CC1=O)[C@H](C)C[C@@H]2OC [Tacrolimus (FK506), Tacrolimus] | 0.808 | 0.523 | 0.958 | 2.46 | – | – | – | – | – | – | – | – | –
46.5 | 46.5 | – | Cc1cc(Nc2ncc(Cl)c(Nc3ccccc3S(=O)(=O)C(C)C)n2)c(OC(C)C)cc1C1CCNCC1 [LDK378] | 80.9 | 75.6563 | 92.1 | 89.8 | – | – | – | – | – | – | – | – | –
31.7 | 31.7 | – | C=C1/C(=C\C=C2/CCC[C@]3(C)[C@@H]([C@H](C)/C=C/[C@@H](O)C4CC4)CC[C@@H]23)C[C@@H](O)C[C@@H]1O [Calcipotriol] | 0.552 | 2.028 | 0.559 | 0.922 | – | – | – | – | – | – | – | – | –
25.1 | 25.1 | – | CCN1CCN(c2cc(-c3ccc(F)cc3)c3c(n2)CCCCCC3)CC1 [Blonanserin] | 1.45 | 1.273 | 2.57 | 15.5 | – | – | – | – | – | – | – | – | –
42.9 | 42.9 | – | CC1(C)[C@@H](O)CC[C@]2(C)[C@H]3C(=O)C=C4[C@@H]5C[C@@](C)(C(=O)O)CC[C@]5(C)CC[C@@]4(C)[C@]3(C)CC[C@@H]12 [Enoxolone] | 4.15 | 0.6522 | 0.697 | 1.61 | – | – | – | – | – | – | – | – | –
33 | 33 | – | CC1(C)Cc2c(-c3ccccc3)c(-c3ccc(Cl)cc3)c(CC(=O)O)n2C1 [Licofelone] | 0.823 | 0.4583 | 2.67 | 3.98 | – | – | – | – | – | – | – | – | –
28.4 | 28.4 | – | CCOc1cc(CC(=O)N[C@@H](CC(C)C)c2ccccc2N2CCCCC2)ccc1C(=O)O [Repaglinide] | 0.236 | 0.185 | 0.354 | 1.01 | – | – | – | – | – | – | – | – | –
30.9 | 30.9 | – | Cc1c(C)c2c(c(C)c1O)CCC(C)(COc1ccc(CC3SC(=O)NC3=O)cc1)O2 (stereo not shown) [Troglitazone] | 0.791 | 0.3187 | 0.272 | 0.925 | – | – | – | – | – | – | – | – | –
41.4 | 41.4 | – | C=C[C@@H]1C[C@]1(NC(=O)[C@@H]1C[C@@H](Oc2ncc(OC)c3ccc(Cl)cc23)CN1C(=O)[C@@H](NC(=O)OC(C)(C)C)C(C)(C)C)C(=O)NS(=O)(=O)C1CC1 [Asunaprevir (BMS-650032), Asunaprevir] | 3.04 | 2.12 | 1.15 | 3.86 | – | – | – | – | – | – | – | – | –
36.4 | 36.4 | – | CC[C@H]1[C@@H](O)[C@@H]2[C@H](CC[C@]3(C)[C@@H]([C@H](C)CCC(=O)O)CC[C@@H]23)[C@@]2(C)CC[C@@H](O)C[C@@H]12 [Obeticholic Acid] | 1.16 | 0.273 | 0.566 | 1.41 | – | – | – | – | – | – | – | – | –
